Legend:
[1] = test system: human retinal endothelial cells (HREC); experiment: PMA-induced HREC network formation in fibrin gel; type: cell-based; conditions: PMA 25 ng/mL, vs PMA control
Method: Prior to the start of the experiment, HREC from Cell Systems were cultured in flask in CS-C complete medium. The tube formation assay was performed in a 96-well plate pre-coated with fibrin gel. HREC were collected from flasks and re-suspended 1% FBS EBM-2 medium. Cells were pre-incubated with the integrin antagonists, echistatin or vehicle control for 30 min before loading onto the fibrin gel. Images were taken at 9 h.
Thrombin solution and fibrinogen solutions were allowed to thaw at room temperature and 37° C. water bath, respectively. Fibrinogen solution at 30 μL was added into the desired number of wells in a 96-well plate. Plate was gently shaken to ensure uniform coverage of fibrinogen solution in the well. Thrombin at 20 μL was added into each well. The plate was gently shaken immediately to ensure the thrombin was mixed well with fibrinogen. The plate was placed at 37° C. overnight to allow the fibrin gel to polymerize.
HREC were trypsinized at about 80% confluence and counted by standard hemocytometer methods. After deactivating trypsin with 5 mL of 10% FBS EBM-2 medium, the cells were centrifuged (800 rpm, 8 min) and re-suspended at 2×10^5 cells/mL in 1% FBS EBM-2 medium
Cells were pre-incubated with integrin compounds or echistatin at 37° C., 5% CO2, and 95% humidity for 30 minutes before mixing with PMA medium. The final concentrations of all agents are shown in the design table. The 100 μL of the cell mixture was added onto the gel and cells were cultured at 37° C., 5% CO2, and 95% humidity. Images were taken at different time points.
The network formation scoring system (a five point-scale)
Each well in one group was given a score and then averaged. Data were expressed as mean±SEM of network formation scores. Statistical analysis was performed using a one-way ANOVA-Dunnett's test in raw data, and p<0.05 was considered statistically significant. Data analysis was performed using statistical analysis software JMP (SAS Institute, Cary, N.C.).

[2] = test system: human retinal endothelial cells (HREC); experiment: Testing 4: VEGF-induced HREC proliferation (MTS assay), Avastin with or without BOL-303050-X; type: cell-based; conditions: for HREC proliferation in the presence of VEGF, compound alone: VEGF 10 ng/ml, 3 days
Method: HREC were first cultured overnight in a 96-well plate coated with fibronectin. The next day, cells were serum-starved for 2 hours before treatment. […] The cells were then cultured at 37° C., 5% CO2, and 95% humidity for another 3 days.
A 96-well plate was coated with human fibronectin (10 μg/ml) at 37° C. for 5 h. HREC were collected from flasks by EDTA-trypsin treatment and re-suspended in 10% FBS CS-C medium at 18,000 cells/ml. Cells (200 μl/well) were added to the plate and cultured overnight at 37° C., 5% CO2, and 95% humidity. The next day, medium was aspirated and 200 μl/well serum-free medium was added for 2 h at 37° C., 5% CO2, and 95% humidity.
Normal IgG was added in such a way that all groups contained the same amount of IgG proteins. All medium solutions were incubated for 1 h at 37° C., 5% CO2, and 95% humidity. After carefully aspirating the medium from cells, 200 μl of the medium containing different agents were added into appropriate wells. The cells were further cultured for 3 days.
At the end of incubation, the medium was carefully aspirated from cells and 120 μl of MTS working solution was added into all wells including four blank wells (without cells). The plate was incubated at 37° C., 5% CO2, and 95% humidity for 1 hour and then read by a plate reader at 490 nm wavelength.
Median optical density (OD) was generated from different groups. Data were expressed as mean±SEM of the OD values. Statistical analysis was performed using two-way ANOVA followed by the contrast procedure after Box-Cox transformations if needed, and p<0.05 was considered statistically significant. […] All the data from the individual wells were fitted to a re-parameterized four-parameter logistic equation to obtain IC50 using similar methodology as that previously described and utilizing the statistical analysis software JMP (SAS Institute, Cary, N.C.).

[3] = Clinical ophthalmic examination in monkeys (vitreal cell scores, anterior chamber inflammation); type: in vivo, cynomolgus monkeys (Macaca fascicularis); conditions: for Vitreal cell score: number of eyes with grade 0 / Vitreal cell score: number of eyes with grade 1 / Vitreal cell score: number of eyes with grade 2 / Vitreal cell score: number of eyes with grade 3 / Vitreal cell score: number of eyes with grade 4 / Vitreal cell score: number of eyes with grade Trace: intravitreal days 1 and 15, cells not distinguishable from dispersed drug
Method: Once the phase Ib study was completed, and it was established that the drug suspension in oil would not interfere with either laser administration, evaluation of CNV or cause adverse effects, phase II was initiated. On days 1, and 15 both eyes of monkeys received 50 μL of Lucentis (0.5 mg/eye), vehicle (0 mg/eye), BOL-303050-X (1.5 mg/eye), BOL-303054-X (1.5 mg/eye) or BOL-303055-X (1.5 mg/eye) (Table 2). Intravitreous injection was performed for each by eye aiming towards mid-vitreous body. Dosing in the right eye was alternated for successive doses (as applicable) at approximately the 11 o'clock and 10 o'clock positions. Dosing in the left eye was alternated for successive doses (as applicable) from approximately the 1 o'clock and 2 o'clock positions.
Animals were examined at baseline, on days 1, 3, 7, 15, and 31 of Dosing Phase II and on the day of scheduled sacrifice (day 38). On days of dose administration the ophthalmic examination was done prior to dosing.

| Molecule | Inhibition of PMA-induced HREC network formation in fibrin gel ([1]; 10 nM) | Vitreal cell score: number of eyes with grade 0 ([3]; Day 3) | Vitreal cell score: number of eyes with grade 1 ([3]; Day 3) | Vitreal cell score: number of eyes with grade 2 ([3]; Day 3) | Vitreal cell score: number of eyes with grade 3 ([3]; Day 3) | Vitreal cell score: number of eyes with grade 4 ([3]; Day 3) | Vitreal cell score: number of eyes with grade Trace ([3]; Day 3) | Vitreal cell score: number of eyes with grade 0 ([3]; Day 7) | Vitreal cell score: number of eyes with grade 1 ([3]; Day 7) | Vitreal cell score: number of eyes with grade 2 ([3]; Day 7) | Vitreal cell score: number of eyes with grade 3 ([3]; Day 7) | Vitreal cell score: number of eyes with grade 4 ([3]; Day 7) | Vitreal cell score: number of eyes with grade Trace ([3]; Day 7) | Vitreal cell score: number of eyes with grade 0 ([3]; Day 15) | Vitreal cell score: number of eyes with grade 1 ([3]; Day 15) | Vitreal cell score: number of eyes with grade 2 ([3]; Day 15) | Vitreal cell score: number of eyes with grade 3 ([3]; Day 15) | Vitreal cell score: number of eyes with grade 4 ([3]; Day 15) | Vitreal cell score: number of eyes with grade Trace ([3]; Day 15) | Vitreal cell score: number of eyes with grade 0 ([3]; Day 31) | further results |
| --- | --- | --- | --- | --- | --- | --- | --- | --- | --- | --- | --- | --- | --- | --- | --- | --- | --- | --- | --- | --- | --- |
| COc1ccc(S(=O)(=O)N[C@@H](CNc2nc(C)nc(N3CCC(c4ccc5c(n4)NCCC5)CC3)c2C)C(=O)O)cc1 [BOL-303050-X] | significantly inhibited | 8 | 5 | 0 | 0 | 1 | 4 | 1 | 4 | 6 | 2 | 5 | 0 | 1 | 8 | 2 | 1 | 4 | 2 | 0 | Inhibition of PMA-induced HREC network formation in fibrin gel ([1]; 1 nM): significantly inhibited; HREC proliferation in the presence of VEGF, compound alone ([2]; 1 nM): significantly reduced; HREC proliferation in the presence of VEGF, compound alone ([2]; 10 nM): significantly reduced; HREC proliferation under basal conditions ([2]; 1 and 10 nM tested, no VEGF): significant effects were only observed at 10 nM; Combination effect with Avastin on VEGF-induced HREC proliferation (synergistic/additive) ([2]; compound 1 nM, Avastin 30 to 300 ng/ml): synergistic effects; Combination effect with Avastin on VEGF-induced HREC proliferation (synergistic/additive) ([2]; compound 10 nM, Avastin at all doses): additive effect; Improvement of the potency of Avastin ([2]; compound at 1 and 10 nM): 6- to 7 fold; Vitreal cell score: number of eyes with grade 1 ([3]; Day 31): 2; Vitreal cell score: number of eyes with grade 2 ([3]; Day 31): 1; Vitreal cell score: number of eyes with grade 3 ([3]; Day 31): 1; Vitreal cell score: number of eyes with grade 4 ([3]; Day 31): 11; Vitreal cell score: number of eyes with grade Trace ([3]; Day 31): 0; Vitreal cell score: number of eyes with grade 0 ([3]; Day 38): 0; Vitreal cell score: number of eyes with grade 1 ([3]; Day 38): 1; Vitreal cell score: number of eyes with grade 2 ([3]; Day 38): 0; Vitreal cell score: number of eyes with grade 3 ([3]; Day 38): 3; Vitreal cell score: number of eyes with grade 4 ([3]; Day 38): 12; Vitreal cell score: number of eyes with grade Trace ([3]; Day 38): 0; Drug-related ocular findings ([3]; oil formulation, 1.5 mg/eye intravitreal): No drug-related ocular findings were reported |
| COc1c(NC[C@H](NC(=O)OCc2ccccc2)C(=O)O)ncnc1N1CCC(c2ccc3c(n2)NCCC3)CC1 [BOL-303054-X] | not statistically significant | 9 | 1 | 1 | 0 | 0 | 5 | 2 | 2 | 2 | 4 | 6 | 2 | 0 | 6 | 2 | 0 | 8 | 0 | 0 | Inhibition of PMA-induced HREC network formation in fibrin gel ([1]; 1 nM): not statistically significant; Vitreal cell score: number of eyes with grade 1 ([3]; Day 31): 1; Vitreal cell score: number of eyes with grade 2 ([3]; Day 31): 8; Vitreal cell score: number of eyes with grade 3 ([3]; Day 31): 2; Vitreal cell score: number of eyes with grade 4 ([3]; Day 31): 6; Vitreal cell score: number of eyes with grade Trace ([3]; Day 31): 1; Vitreal cell score: number of eyes with grade 0 ([3]; Day 38): 0; Vitreal cell score: number of eyes with grade 1 ([3]; Day 38): 0; Vitreal cell score: number of eyes with grade 2 ([3]; Day 38): 3; Vitreal cell score: number of eyes with grade 3 ([3]; Day 38): 2; Vitreal cell score: number of eyes with grade 4 ([3]; Day 38): 13; Vitreal cell score: number of eyes with grade Trace ([3]; Day 38): 0; Anterior chamber inflammation ([3]; left eye of one monkey that developed endophthalmitis on day 29, until day 38): Moderate anterior chamber inflammation |
| CCc1nc(NC[C@H](NC(=O)OCc2ccccc2)C(=O)O)c(C)c(N2CCC(c3ccc4c(n3)NCCC4)CC2)n1 [BOL-303055-X] | significantly inhibited | 11 | 1 | 0 | 0 | 0 | 6 | 0 | 3 | 6 | 3 | 1 | 5 | 0 | 7 | 3 | 1 | 3 | 4 | 5 | Enhancement of Avastin potency ([2]; compound at 1 nM): approximately 6 fold; Enhancement of Avastin potency ([2]; compound at 10 nM): ~7 fold; Vitreal cell score: number of eyes with grade 1 ([3]; Day 31): 2; Vitreal cell score: number of eyes with grade 2 ([3]; Day 31): 4; Vitreal cell score: number of eyes with grade 3 ([3]; Day 31): 0; Vitreal cell score: number of eyes with grade 4 ([3]; Day 31): 0; Vitreal cell score: number of eyes with grade Trace ([3]; Day 31): 7; Vitreal cell score: number of eyes with grade 0 ([3]; Day 38): 6; Vitreal cell score: number of eyes with grade 1 ([3]; Day 38): 5; Vitreal cell score: number of eyes with grade 2 ([3]; Day 38): 0; Vitreal cell score: number of eyes with grade 3 ([3]; Day 38): 0; Vitreal cell score: number of eyes with grade 4 ([3]; Day 38): 0; Vitreal cell score: number of eyes with grade Trace ([3]; Day 38): 7 |
| bevacizumab [Avastin, reference compound] |  |  |  |  |  |  |  |  |  |  |  |  |  |  |  |  |  |  |  |  | Inhibition of VEGF-induced HREC proliferation by Avastin alone ([2]; 3-300 ng/ml, significant from 10 ng/ml): dose-dependent inhibition; IC50 of Avastin on VEGF-induced HREC proliferation ([2]; in the presence of BOL-303050-X 1 nM): 0.015 µg/mL; IC50 of Avastin on VEGF-induced HREC proliferation ([2]; in the presence of BOL-303050-X 10 nM): 0.013 µg/mL |

— patent US20110189174A1, “COMPOSITIONS AND METHODS FOR TREATING, REDUCING, AMELIORATING, ALLEVIATING, OR INHIBITING PROGRESSION OF, PATHOGENIC OCULAR NEOVASCULARIZATION” (priority 2010, published 2011)
